Assay in all cases: biochemical
Holding throughout (design): Eurofins KinaseProfiler full panel at Km ATP, residual kinase activity (%) relative to DMSO

For test [1], the target named is T1, PrKX(h) (Homo sapiens, UniProt P51817).
T1 sequence (P51817 1-358): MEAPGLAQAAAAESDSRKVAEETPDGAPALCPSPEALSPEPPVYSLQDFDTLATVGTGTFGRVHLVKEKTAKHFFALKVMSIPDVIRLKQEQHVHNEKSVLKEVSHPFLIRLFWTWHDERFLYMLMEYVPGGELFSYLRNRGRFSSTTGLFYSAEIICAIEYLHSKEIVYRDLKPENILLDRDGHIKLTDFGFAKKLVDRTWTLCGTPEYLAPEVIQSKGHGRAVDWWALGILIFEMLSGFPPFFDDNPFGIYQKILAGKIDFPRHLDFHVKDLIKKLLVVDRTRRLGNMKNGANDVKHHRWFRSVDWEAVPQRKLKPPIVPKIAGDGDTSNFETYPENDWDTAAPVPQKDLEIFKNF
A digest of the protocol: (§1)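 Compounds screened at 10 µM in radiometric kinase activity assays at Km ATP, reported as remaining kinase activity (%). A KINOMEscan competition-binding screen at 10 µM measured DNA-tagged kinase retained on immobilized active-site ligand by qPCR.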

The target of test [2] is T2, PI3 Kinase (p120g)(h) (Homo sapiens, UniProt P48736).
T2 construct: gene PIK3CG
T2 sequence (P48736 whole entry): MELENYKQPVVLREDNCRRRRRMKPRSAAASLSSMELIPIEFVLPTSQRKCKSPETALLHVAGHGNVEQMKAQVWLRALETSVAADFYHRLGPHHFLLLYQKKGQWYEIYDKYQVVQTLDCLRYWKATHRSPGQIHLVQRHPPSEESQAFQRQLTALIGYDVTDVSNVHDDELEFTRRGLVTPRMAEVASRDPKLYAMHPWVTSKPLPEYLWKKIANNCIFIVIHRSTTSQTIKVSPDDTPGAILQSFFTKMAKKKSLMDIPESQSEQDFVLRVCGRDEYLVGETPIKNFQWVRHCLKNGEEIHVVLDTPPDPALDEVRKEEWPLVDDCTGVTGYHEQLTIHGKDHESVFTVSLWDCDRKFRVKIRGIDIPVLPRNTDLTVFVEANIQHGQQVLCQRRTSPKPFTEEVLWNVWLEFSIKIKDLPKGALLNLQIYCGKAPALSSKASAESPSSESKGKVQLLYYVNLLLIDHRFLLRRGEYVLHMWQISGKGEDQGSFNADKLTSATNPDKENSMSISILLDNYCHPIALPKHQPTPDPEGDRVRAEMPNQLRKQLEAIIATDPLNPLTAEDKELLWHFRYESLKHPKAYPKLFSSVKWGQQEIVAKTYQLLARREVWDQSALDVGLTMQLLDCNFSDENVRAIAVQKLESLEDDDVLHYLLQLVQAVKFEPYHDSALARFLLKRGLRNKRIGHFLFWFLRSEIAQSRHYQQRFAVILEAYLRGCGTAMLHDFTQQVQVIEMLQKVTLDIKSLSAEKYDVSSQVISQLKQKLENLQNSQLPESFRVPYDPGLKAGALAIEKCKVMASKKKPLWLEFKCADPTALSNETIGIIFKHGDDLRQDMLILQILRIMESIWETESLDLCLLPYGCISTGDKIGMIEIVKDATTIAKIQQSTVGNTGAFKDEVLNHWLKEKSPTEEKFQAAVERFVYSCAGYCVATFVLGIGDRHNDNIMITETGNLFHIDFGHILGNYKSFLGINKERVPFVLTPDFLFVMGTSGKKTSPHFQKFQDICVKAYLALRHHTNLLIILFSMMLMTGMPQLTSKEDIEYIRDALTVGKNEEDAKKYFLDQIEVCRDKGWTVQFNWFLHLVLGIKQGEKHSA
In short, it runs like this: as §1

Test [3] concerns the target TYK2(h) (Homo sapiens, UniProt P29597). A digest of the protocol:
as §1

The target of test [4] is CDK1/cyclinB(h) (Homo sapiens, UniProt P06493). A digest of the protocol: as §1
Chain of CDK1/cyclinB(h) (P06493 whole entry): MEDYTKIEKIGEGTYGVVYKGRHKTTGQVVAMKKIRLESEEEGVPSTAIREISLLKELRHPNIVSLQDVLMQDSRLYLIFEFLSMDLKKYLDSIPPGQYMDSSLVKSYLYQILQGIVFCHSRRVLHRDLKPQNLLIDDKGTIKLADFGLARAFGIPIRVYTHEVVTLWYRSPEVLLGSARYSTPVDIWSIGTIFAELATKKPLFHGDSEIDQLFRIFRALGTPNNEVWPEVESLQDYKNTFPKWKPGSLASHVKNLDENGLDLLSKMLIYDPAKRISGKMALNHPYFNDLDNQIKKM
Chain of CDK1/cyclinB(h) (P14635 whole entry partner): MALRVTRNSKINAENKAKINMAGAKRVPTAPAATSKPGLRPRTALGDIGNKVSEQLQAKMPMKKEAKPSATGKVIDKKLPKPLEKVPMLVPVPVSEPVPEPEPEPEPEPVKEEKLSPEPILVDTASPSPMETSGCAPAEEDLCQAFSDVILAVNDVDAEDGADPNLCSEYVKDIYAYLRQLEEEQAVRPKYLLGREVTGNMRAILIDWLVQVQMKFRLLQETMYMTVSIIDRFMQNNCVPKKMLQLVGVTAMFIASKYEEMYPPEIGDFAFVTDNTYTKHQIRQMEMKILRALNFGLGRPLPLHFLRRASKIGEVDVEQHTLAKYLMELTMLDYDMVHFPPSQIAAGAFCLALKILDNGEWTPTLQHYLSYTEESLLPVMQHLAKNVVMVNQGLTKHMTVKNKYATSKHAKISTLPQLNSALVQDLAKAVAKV
Test [5] addresses GRK5(h) (Homo sapiens, UniProt P34947). A digest of the protocol:
as §1

For test [6], the target named is T3, CaMKIIδ(h) (Homo sapiens, UniProt Q13557).
T3 construct: gene CAMK2D
A digest of the protocol:
as §1

For test [7], the target named is T4, TRB2(h) (Homo sapiens, UniProt Q92519).
T4 construct: gene TRIB2
T4 sequence (Q92519 1-343): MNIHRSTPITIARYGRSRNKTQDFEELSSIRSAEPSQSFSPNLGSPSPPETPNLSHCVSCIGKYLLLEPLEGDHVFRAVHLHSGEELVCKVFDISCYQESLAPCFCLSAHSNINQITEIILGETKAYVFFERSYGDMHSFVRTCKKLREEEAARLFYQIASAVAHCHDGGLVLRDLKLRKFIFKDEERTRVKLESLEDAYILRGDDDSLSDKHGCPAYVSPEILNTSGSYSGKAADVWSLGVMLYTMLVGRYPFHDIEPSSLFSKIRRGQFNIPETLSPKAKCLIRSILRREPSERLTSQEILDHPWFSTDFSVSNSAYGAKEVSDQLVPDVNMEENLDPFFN
In short, it runs like this: as §1

Test [8] concerns the target T5, PKD2(h) (Homo sapiens, UniProt Q9BZL6).
T5 construct: gene PRKD2
T5 sequence (Q9BZL6 1-878): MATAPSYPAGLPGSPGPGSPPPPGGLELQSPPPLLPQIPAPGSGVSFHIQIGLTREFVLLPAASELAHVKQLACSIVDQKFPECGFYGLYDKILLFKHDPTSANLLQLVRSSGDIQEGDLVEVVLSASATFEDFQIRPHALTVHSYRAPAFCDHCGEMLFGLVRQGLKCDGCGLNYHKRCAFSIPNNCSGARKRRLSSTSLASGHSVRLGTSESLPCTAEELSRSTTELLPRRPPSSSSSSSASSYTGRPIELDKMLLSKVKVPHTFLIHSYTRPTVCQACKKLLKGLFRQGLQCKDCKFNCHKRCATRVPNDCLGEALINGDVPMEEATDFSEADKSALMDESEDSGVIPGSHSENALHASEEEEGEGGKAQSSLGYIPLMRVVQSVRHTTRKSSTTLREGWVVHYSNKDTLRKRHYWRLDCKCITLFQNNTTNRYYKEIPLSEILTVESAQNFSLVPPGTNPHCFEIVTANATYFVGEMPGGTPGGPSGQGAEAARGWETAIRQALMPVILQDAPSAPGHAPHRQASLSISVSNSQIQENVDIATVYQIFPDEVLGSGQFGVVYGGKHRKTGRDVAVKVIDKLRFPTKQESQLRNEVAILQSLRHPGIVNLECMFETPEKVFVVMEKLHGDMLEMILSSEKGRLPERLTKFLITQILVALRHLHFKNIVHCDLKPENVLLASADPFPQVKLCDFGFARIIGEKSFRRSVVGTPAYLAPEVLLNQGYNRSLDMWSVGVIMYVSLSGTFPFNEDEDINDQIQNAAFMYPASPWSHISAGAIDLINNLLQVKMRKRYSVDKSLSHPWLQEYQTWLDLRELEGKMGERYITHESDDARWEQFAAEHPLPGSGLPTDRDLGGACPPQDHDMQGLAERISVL
A digest of the protocol: as §1

In test [9] the target is T6, IR(h) (Homo sapiens, UniProt P06213).
T6 construct: gene INSR
T6 sequence (P06213 whole entry): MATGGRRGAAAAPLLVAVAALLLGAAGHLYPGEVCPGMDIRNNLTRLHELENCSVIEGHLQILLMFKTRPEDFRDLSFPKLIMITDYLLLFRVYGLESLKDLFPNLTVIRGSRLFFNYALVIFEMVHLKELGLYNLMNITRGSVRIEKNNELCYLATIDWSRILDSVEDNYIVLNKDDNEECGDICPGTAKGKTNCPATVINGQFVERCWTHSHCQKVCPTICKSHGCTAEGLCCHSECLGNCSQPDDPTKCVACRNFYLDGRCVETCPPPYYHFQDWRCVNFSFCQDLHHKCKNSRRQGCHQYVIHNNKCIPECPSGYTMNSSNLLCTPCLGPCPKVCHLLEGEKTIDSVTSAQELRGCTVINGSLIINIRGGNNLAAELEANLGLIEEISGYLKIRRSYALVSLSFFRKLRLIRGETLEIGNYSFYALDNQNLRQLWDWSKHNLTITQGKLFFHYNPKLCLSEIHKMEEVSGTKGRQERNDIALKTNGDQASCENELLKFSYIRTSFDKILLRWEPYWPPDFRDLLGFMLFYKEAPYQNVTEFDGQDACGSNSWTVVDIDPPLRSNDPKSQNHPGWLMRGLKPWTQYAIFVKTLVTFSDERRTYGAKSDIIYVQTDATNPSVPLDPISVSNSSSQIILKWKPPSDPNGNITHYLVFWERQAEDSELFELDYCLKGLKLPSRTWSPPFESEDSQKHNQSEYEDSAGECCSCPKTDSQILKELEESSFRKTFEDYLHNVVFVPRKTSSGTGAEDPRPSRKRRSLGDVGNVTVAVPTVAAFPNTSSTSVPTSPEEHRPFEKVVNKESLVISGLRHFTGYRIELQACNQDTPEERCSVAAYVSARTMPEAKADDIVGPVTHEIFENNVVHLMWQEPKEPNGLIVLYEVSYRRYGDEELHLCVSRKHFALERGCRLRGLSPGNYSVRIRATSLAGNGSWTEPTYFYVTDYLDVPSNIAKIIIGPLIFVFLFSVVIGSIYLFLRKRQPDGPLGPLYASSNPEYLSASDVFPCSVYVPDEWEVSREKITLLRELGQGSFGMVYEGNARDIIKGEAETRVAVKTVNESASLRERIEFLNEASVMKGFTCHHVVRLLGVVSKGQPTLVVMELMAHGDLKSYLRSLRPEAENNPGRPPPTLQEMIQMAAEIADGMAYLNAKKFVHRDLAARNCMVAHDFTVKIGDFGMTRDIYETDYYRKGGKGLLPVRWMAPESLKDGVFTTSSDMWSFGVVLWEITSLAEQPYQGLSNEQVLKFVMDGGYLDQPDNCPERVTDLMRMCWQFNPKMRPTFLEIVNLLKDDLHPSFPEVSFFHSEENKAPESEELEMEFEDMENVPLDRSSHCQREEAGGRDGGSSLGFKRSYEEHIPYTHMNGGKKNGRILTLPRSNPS
A digest of the protocol: as §1

Where [10] appears, read: read-out: Residual activity (%) Spautin-1 5aa.
Where [11] appears, read: read-out: Residual activity (%) 5as.
Where [12] appears, read: read-out: Residual activity (%) 5at.
The mark [13] stands for this setting: read-out: Residual activity (%) 5ay.

Data on 4 compounds can be found in PMC7827406, “Structure–Activity Relationship (SAR) Study of Spautin-1 to Entail the Discovery of Novel NEK4 Inhibitors” (International Journal of Molecular Sciences, 2021).

The structures appear in SMILES notation. Where two headings read alike, the source gives them in different places.

Chain of TYK2(h) (P29597 whole entry): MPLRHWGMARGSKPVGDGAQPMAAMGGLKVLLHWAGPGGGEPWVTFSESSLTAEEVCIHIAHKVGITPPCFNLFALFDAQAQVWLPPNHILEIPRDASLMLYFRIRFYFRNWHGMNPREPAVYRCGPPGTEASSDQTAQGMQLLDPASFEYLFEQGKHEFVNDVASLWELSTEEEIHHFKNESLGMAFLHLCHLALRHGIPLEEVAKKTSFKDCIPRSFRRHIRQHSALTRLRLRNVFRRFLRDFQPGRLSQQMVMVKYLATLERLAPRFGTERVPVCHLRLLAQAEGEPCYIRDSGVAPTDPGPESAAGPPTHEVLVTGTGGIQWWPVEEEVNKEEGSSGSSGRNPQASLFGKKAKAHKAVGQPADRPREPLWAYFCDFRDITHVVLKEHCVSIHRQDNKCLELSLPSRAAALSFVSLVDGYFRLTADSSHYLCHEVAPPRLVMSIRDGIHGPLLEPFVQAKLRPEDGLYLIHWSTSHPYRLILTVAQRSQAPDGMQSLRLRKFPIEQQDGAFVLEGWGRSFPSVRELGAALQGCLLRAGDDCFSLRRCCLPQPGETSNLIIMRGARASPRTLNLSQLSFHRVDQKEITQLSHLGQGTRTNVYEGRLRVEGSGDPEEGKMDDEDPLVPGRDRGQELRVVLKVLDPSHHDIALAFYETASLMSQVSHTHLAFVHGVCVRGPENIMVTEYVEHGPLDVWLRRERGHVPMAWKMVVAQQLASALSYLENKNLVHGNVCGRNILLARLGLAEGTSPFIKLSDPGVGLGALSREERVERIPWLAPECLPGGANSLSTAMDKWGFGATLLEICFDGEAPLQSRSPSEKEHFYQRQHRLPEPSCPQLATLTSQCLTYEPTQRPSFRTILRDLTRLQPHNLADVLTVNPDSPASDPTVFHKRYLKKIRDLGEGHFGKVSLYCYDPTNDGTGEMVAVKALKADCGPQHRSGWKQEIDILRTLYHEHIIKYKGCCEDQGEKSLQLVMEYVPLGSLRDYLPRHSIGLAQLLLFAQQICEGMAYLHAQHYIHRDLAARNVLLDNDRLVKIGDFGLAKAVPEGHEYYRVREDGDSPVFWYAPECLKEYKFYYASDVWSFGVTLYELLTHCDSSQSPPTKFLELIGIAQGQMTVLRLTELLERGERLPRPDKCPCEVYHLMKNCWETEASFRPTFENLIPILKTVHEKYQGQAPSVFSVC
Chain of GRK5(h) (P34947 whole entry): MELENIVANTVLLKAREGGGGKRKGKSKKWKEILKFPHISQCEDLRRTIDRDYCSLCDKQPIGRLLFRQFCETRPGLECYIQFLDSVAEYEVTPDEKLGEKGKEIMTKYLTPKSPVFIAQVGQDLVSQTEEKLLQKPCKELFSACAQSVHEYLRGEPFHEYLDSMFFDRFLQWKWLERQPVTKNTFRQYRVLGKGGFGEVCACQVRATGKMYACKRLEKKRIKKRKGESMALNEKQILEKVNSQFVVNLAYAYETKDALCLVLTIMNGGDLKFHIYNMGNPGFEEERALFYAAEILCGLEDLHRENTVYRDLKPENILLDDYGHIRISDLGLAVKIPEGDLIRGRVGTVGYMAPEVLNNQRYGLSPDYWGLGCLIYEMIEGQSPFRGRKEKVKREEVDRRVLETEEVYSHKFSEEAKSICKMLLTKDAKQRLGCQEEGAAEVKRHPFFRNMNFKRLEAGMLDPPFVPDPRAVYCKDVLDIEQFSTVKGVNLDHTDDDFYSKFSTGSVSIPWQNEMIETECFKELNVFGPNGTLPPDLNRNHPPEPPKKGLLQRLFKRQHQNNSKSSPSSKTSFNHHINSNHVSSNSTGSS

On to `Fc1ccc(CNc2ncnc3ccc(F)cc23)cc1` [5aa, 6-Fluoro-N-(4-fluorobenzyl)-4-Quinazolinamine], for which the remaining activity at 10 µM turned out to be 97% in [1] (setting [10]); 91% in test [2] (setting [10]); 109% in [3] (setting [10]); 87% in test [4] (setting [10]); 86% in test [5] (setting [10]); 90% in [6] (setting [10]). In addition, the remaining activity at 10 µM is 69% in [7] (setting [10]), 106% in test [8] (setting [10]) and 73% in [9] (setting [10]).

Consider `Fc1ccc(CCNc2ncnc3ccc(F)cc23)cc1` [5as, 6-Fluoro-N-[2-(4-Fluorophenyl)Ethyl]-4-Quinazolinamine], for which the remaining activity at 10 µM is 97% in test [1] (setting [11]); 92% in test [2] (setting [11]); 86% in test [3] (setting [11]); 90% in test [4] (setting [11]); 95% in [5] (setting [11]); 79% in test [6] (setting [11]). In addition, the remaining activity at 10 µM in [7] (setting [11]) turned out to be 65%; in test [8] (setting [11]), 74%; in [9] (setting [11]) it was 88%.

In the case of `Fc1ccc2ncnc(NCCc3ccc(Cl)cc3)c2c1` [5at, N-[2-(4-Chlorophenyl)Ethyl]-6-Fluoro-4-Quinazolinamine], the remaining activity at 10 µM in [1] (setting [12]) stood at 112%; in [2] (setting [12]), 90%; in [3] (setting [12]) it was 84%; in test [4] (setting [12]) it was 91%; in test [5] (setting [12]), 96%; in [6] (setting [12]), 77%. Also, the remaining activity at 10 µM came to 60% in test [7] (setting [12]), 76% in [8] (setting [12]) and 70% in [9] (setting [12]).

As to `COc1ccc2ncnc(Nc3cccc(F)c3)c2c1` [5ay, N-(3-Fluorophenyl)-6-Methoxy-4-Quinazolinamine], the remaining activity at 10 µM in test [1] (setting [13]) was 93%; in [2] (setting [13]) it was 91%; in test [3] (setting [13]) it was 75%; in [4] (setting [13]), 72%; in test [5] (setting [13]), 89%; in test [6] (setting [13]) it was 41%. Further, the remaining activity at 10 µM in test [7] (setting [13]) was 31%; in test [8] (setting [13]), 77%; in test [9] (setting [13]), 98%.
